Laboratory results reported in PMC9112336 (ACS infectious diseases, 2022).

Legend:
Assay type in all cases: cell-based
[1] = test system: mCherry-LAMP1 expressing HEK293 cells
[2] = test system: vesicular acidification in HEK293 cells
[3] = test system: mCherry-LAMP1 expressing HEK293 cells; remark: listed apart in the source
[4] = test system: GFP-Rab5 expressing HEK293 cells
[5] = test system: mCherry-LAMP1 expressing HEK293 cells; remark: listed apart in the source
[6] = test system: endocytic vesicle pH in HEK293 cells

Structure (SMILES): Cc1cccc(/C=N/Nc2cc(N3CCOCC3)nc(OCCc3ccccn3)n2)c1 [Apilimod, apilimod]
- effect on LAMP1+ structures compared to DMSO [1]: significantly altered LAMP1 structures

Structure (SMILES): COc1cc2c(O)c3c(c(-c4ccc5c(c4)OCO5)c2cc1OC)C(=O)OC3 [1.1, diphyllin]
- acidification activity after the 24 h washout period [2]: 90.2 ± 11.5%
- acidification activity, initial response (immediate post washout) [2]: 57.5 ± 9.0%

Structure (SMILES): CO/C1=C\C(C)=C\[C@@H](C)[C@@H](O)[C@@H](C)C/C(C)=C/C=C/[C@H](OC)[C@@H]([C@@H](C)[C@@H](O)[C@H](C)[C@@]2(O)C[C@@H](O)[C@H](C)[C@@H](C(C)C)O2)OC1=O [bafilomycin, bafilomycin A1]
- average number of large, dilated vesicles per cell, treatment after apilimod [3]: ~1
- average size of Rab5+ punctate vesicles [4]: 400 nm
- average number of dilated vesicles >1 μm per cell, pre-treatment before apilimod [5]: ~1
- reversibility of inhibition of vesicular acidification [2]: full recovery of acridine orange pH-dependent shift to red was not observed
- large (>1 μm) vesicle pHrodo fluorescence [6]: significant decrease
